# Measurements: ChEMBL document CHEMBL1153555, “Molecular mechanism of target recognition by subtilin, a class I lanthionine antibiotic” (Antimicrob Agents Chemother, 2008)
# What was measured:
# [1] = system: Lactococcus lactis; test: Antibacterial activity against Lactococcus lactis MG1614 by disk diffusion assay; assay type: functional
# [2] = Permeability across Micrococcus luteus ATCC 4698 lipid II-containing unilamellar vesicle of 1,2-dioleoyl-sn-gltcero-3-phosphocholine and 1,2-dioleoyl-sn-glycero-3-phosphoglycerol assessed as partial leakage after disintegration of vesicles at lower concentration by carboxyfluorescein leakage assay; assay type: ADME
SMILES,MIC [1] [µg/mL],permeability [2] [%]
C=C1NC(=O)[C@H](CCC(=O)O)NC(=O)[C@H](NC(=O)[C@@H](N)CCCCN)CSC[C@@H](C(=O)N[C@H]2C(=O)N3CCC[C@H]3C(=O)NCC(=O)N[C@H](C(=O)N[C@H](C(=O)N[C@H]3C(=O)NCC(=O)N[C@@H](C)C(=O)N[C@@H](CC(C)C)C(=O)N[C@@H](CCC(N)=O)C(=O)N/C(=C\C)C(=O)N[C@H](C(=O)N[C@@H](Cc4ccccc4)C(=O)N[C@@H](CC(C)C)C(=O)N[C@@H](CCC(N)=O)C(=O)N[C@H]4C(=O)N[C@@H](CC(C)C)C(=O)N[C@H]5C(=O)N[C@@H](CS[C@H]4C)C(=O)N[C@@H](CC(N)=O)C(=O)N[C@H](C(=O)N[C@@H](CCCCN)C(=O)O)CS[C@H]5C)CS[C@H]3C)C(C)C)CS[C@H]2C)NC(=O)[C@H](CC(C)C)NC1=O,> 50,
C=C1NC(=O)CC[C@@H](C(=O)O)NC(=O)[C@H](NC(=O)[C@H](CCCCN)NC(=O)[C@@H](N)Cc2c[nH]c3ccccc23)CSC[C@@H](C(=O)N[C@@H]2C(=O)N3CCC[C@H]3C(=O)NCC(=O)N[C@H](C(=O)N[C@H](C(=O)N[C@@H]3C(=O)NCC(=O)N[C@@H](C)C(=O)N[C@@H](CC(C)C)C(=O)N[C@@H](CCC(N)=O)C(=O)N/C(=C/C)C(=O)N[C@H](C(=O)N[C@@H](Cc4ccccc4)C(=O)N[C@@H](CC(C)C)C(=O)N[C@@H](CCC(N)=O)C(=O)N[C@@H]4C(=O)N[C@@H](CC(C)C)C(=O)N[C@H]5C(=O)N[C@@H](CSC4C)C(=O)NC(=O)[C@H](CC(N)=O)N[C@H](C(=O)N[C@@H](CCCCN)C(=O)O)CSC5C)CSC3C)C(C)C)CSC2C)N[C@@H](CC(C)C)C(=O)NC1=O (stereo not given in full),11.5,
C=C(NC(=O)[C@@H](NC(=O)[C@H](CCCCN)NC(=O)[C@@H]1CS[C@@H](C)[C@H]2NC(=O)[C@H](CC(C)C)NC(=O)[C@H](NC(=O)[C@H](CCC(N)=O)NC(=O)[C@H](CC(C)C)NC(=O)[C@H](Cc3ccccc3)NC(=O)[C@@H]3CS[C@@H](C)[C@@H](NC(=O)[C@@H](NC(=O)[C@@H]4CS[C@@H](C)[C@@H](NC(=O)[C@@H]5CSC[C@@H](NC(=O)[C@H](CCCCN)NC(=O)[C@H](Cc6c[nH]c7ccccc67)NC(=O)CCC(=O)O)C(=O)N[C@@H](CCC(=O)O)C(=O)NC(=C)C(=O)N[C@@H](CC(C)C)C(=O)N5)C(=O)N5CCC[C@H]5C(=O)NCC(=O)N4)C(C)C)C(=O)NCC(=O)N[C@@H](C)C(=O)N[C@@H](CC(C)C)C(=O)N[C@@H](CCC(N)=O)C(=O)N/C(=C\C)C(=O)N3)[C@H](C)SC[C@H](NC2=O)C(=O)N[C@@H](CC(N)=O)C(=O)N1)[C@@H](C)CC)C(=O)N[C@@H](CCCCN)C(=O)O,19.2,
C=C(NC(=O)[C@@H](NC(=O)[C@H](CCCCN)NC(=O)[C@@H]1CS[C@@H](C)[C@H]2NC(=O)[C@H](CC(C)C)NC(=O)[C@H](NC(=O)[C@H](CCC(N)=O)NC(=O)[C@H](CC(C)C)NC(=O)[C@H](Cc3ccccc3)NC(=O)[C@@H]3CS[C@@H](C)[C@@H](NC(=O)[C@@H](NC(=O)[C@@H]4CS[C@@H](C)[C@@H](NC(=O)[C@@H]5CSC[C@@H](NC(=O)[C@H](CCCCN)NC(=O)[C@@H](N)Cc6c[nH]c7ccccc67)C(=O)N[C@@H](CCC(=O)O)C(=O)NC(=C)C(=O)N[C@@H](CC(C)C)C(=O)N5)C(=O)N5CCC[C@H]5C(=O)NCC(=O)N4)C(C)C)C(=O)NCC(=O)N[C@@H](C)C(=O)N[C@@H](CC(C)C)C(=O)N[C@@H](CCC(N)=O)C(=O)N/C(=C\C)C(=O)N3)[C@H](C)SC[C@H](NC2=O)C(=O)N[C@@H](CC(N)=O)C(=O)N1)[C@@H](C)CC)C(=O)N[C@@H](CCCCN)C(=O)O [SUBTILIN],,20
C=C1NC(=O)CC[C@@H](C(=O)O)NC(=O)[C@H](NC(=O)[C@H](CCCCN)NC(=O)[C@@H](N)Cc2c[nH]c3ccccc23)CSC[C@@H](C(=O)N[C@@H]2C(=O)N3CCC[C@H]3C(=O)NCC(=O)N[C@H](C(=O)N[C@H](C(=O)N[C@@H]3C(=O)NCC(=O)N[C@@H](C)C(=O)N[C@@H](CC(C)C)C(=O)N[C@@H](CCC(N)=O)C(=O)N/C(=C/C)C(=O)N[C@H](C(=O)N[C@@H](Cc4ccccc4)C(=O)N[C@@H](CC(C)C)C(=O)N[C@@H](CCC(N)=O)C(=O)N[C@@H]4C(=O)N[C@@H](CC(C)C)C(=O)N[C@H]5C(=O)N[C@@H](CSC4C)C(=O)NC(=O)[C@H](CC(N)=O)N[C@H](C(=O)N[C@@H](CCCCN)C(=O)N[C@H](C(=O)NC(=C)C(=O)N[C@@H](CCCCN)C(=O)O)[C@@H](C)CC)CSC5C)CSC3C)C(C)C)CSC2C)N[C@@H](CC(C)C)C(=O)NC1=O (stereo not given in full) [SUBTILIN],1.13,
